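A five-concentration, 48-hour dose response in 96-well plates underlies each endpoint, interpolated linearly between surrounding concentrations. At the GI50, growth is halved.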 The source made the active and inactive calls. Rule as the data show it: active = GI50 up to about 1.1 µM and inactive = higher.
Key:
Assay in all cases: NCI tumour cell line growth inhibition, 48 h
786-0 = tested on: 786-0
BT-549 = tested on: BT-549
HCT-116 = tested on: HCT-116
HCT-15 = tested on: HCT-15
HL-60 = tested on: HL-60
HT-29 = tested on: HT-29
KM12 = tested on: KM12
LOX IMVI = tested on: LOX IMVI
M14 = tested on: M14
NCI-H460 = tested on: NCI-H460
OVCAR-8 = tested on: OVCAR-8
SF-268 = tested on: SF-268
SK-MEL-5 = tested on: SK-MEL-5
SN12C = tested on: SN12C
SNB-19 = tested on: SNB-19
SNB-75 = tested on: SNB-75
UACC-62 = tested on: UACC-62
OVCAR-3 = tested on: OVCAR-3
A498 = tested on: A498

SMILES	GI50 (786-0)	GI50 (BT-549)	GI50 (HCT-116)	GI50 (HCT-15) [µM]	GI50 (HL-60)	GI50 (HT-29)	GI50 (KM12)	GI50 (LOX IMVI)	GI50 (M14)	GI50 (NCI-H460)	GI50 (OVCAR-8)	GI50 (SF-268)	GI50 (SK-MEL-5)	GI50 (SN12C)	GI50 (SNB-19)	GI50 (SNB-75)	GI50 (UACC-62)	GI50 (OVCAR-3)	GI50 (A498)
COC(=O)C1CC2(CCC1=O)Cc1ccccc1C2=O (configuration not stated)	> 100 µM (inactive)	> 100 µM (inactive)	87.7 µM (inactive)	> 100	> 100 µM (inactive)	> 100 µM (inactive)	> 100 µM (inactive)	> 100 µM (inactive)	> 100 µM (inactive)	> 100 µM (inactive)	> 100 µM (inactive)	> 100 µM (inactive)	> 100 µM (inactive)	> 100 µM (inactive)	> 100 µM (inactive)	> 100 µM (inactive)	> 100 µM (inactive)		
COc1cccc(C(=O)Nc2c3ccccc3nc3ccccc23)c1OC	52.2 µM (inactive)	> 100 µM (inactive)	> 100 µM (inactive)	> 100	> 100 µM (inactive)	> 100 µM (inactive)	> 100 µM (inactive)	> 100 µM (inactive)	> 100 µM (inactive)	76.2 µM (inactive)	88.9 µM (inactive)	74.1 µM (inactive)	29.2 µM (inactive)	> 100 µM (inactive)	62.2 µM (inactive)	17.5 µM (inactive)	> 100 µM (inactive)	> 100 µM (inactive)	
O=C1C=CC2(C=C1)CCNC1=C2C(=O)c2ccccc2C1=O	> 100 µM (inactive)		> 100 µM (inactive)	> 100	> 100 µM (inactive)	> 100 µM (inactive)	> 100 µM (inactive)	> 100 µM (inactive)	> 100 µM (inactive)	> 100 µM (inactive)	> 100 µM (inactive)	> 100 µM (inactive)	56.9 µM (inactive)	> 100 µM (inactive)		30.8 µM (inactive)	> 100 µM (inactive)	28.5 µM (inactive)	> 100 µM (inactive)
CC(=O)O[C@H]1C(=O)[C@@]2(C)[C@H]([C@H](OC(=O)c3ccccc3)[C@]3(O)C[C@H](OC(=O)[C@H](O)[C@@H](NC(=O)c4ccccc4)C4CCCCC4)C(C)=C1C3(C)C)[C@]1(OC(C)=O)CO[C@@H]1C[C@@H]2O	< 0.01 µM (active)	0.0143 µM (active)	< 0.01 µM (active)	0.12	< 0.01 µM (active)	< 0.01 µM (active)	< 0.01 µM (active)	< 0.01 µM (active)	< 0.01 µM (active)	< 0.01 µM (active)	< 0.01 µM (active)	< 0.01 µM (active)	< 0.01 µM (active)		0.013 µM (active)		< 0.01 µM (active)	< 0.01 µM (active)	
C=CCNC(=O)NC1=CSC2=NC(=O)C3(NN12)c1ccccc1-c1ccccc13	> 10 µM (inactive)	> 10 µM (inactive)	> 10 µM (inactive)	> 10	> 10 µM (inactive)	> 10 µM (inactive)	> 10 µM (inactive)	> 10 µM (inactive)	> 10 µM (inactive)	> 10 µM (inactive)	> 10 µM (inactive)	> 10 µM (inactive)	> 10 µM (inactive)	> 10 µM (inactive)	> 10 µM (inactive)	> 10 µM (inactive)	> 10 µM (inactive)		
O=[N+]([O-])/C(Cl)=C(/C(Cl)=C(Cl)Cl)N1CCCCC1	11.3 µM (inactive)		6.18 µM (inactive)	4.36	2.64 µM (inactive)	14.9 µM (inactive)	14.5 µM (inactive)	7.33 µM (inactive)	11.2 µM (inactive)	18.7 µM (inactive)	4.14 µM (inactive)	11.9 µM (inactive)	6.44 µM (inactive)	14.2 µM (inactive)	24.5 µM (inactive)	18.8 µM (inactive)	4.21 µM (inactive)	10.8 µM (inactive)	18.4 µM (inactive)
CC(=O)Oc1ccc2c(c1)O/C(=C\c1ccc(O)cc1)C2=O	> 100 µM (inactive)	> 100 µM (inactive)	> 100 µM (inactive)	> 100	> 100 µM (inactive)		> 100 µM (inactive)		> 100 µM (inactive)	> 100 µM (inactive)	> 100 µM (inactive)	> 100 µM (inactive)	> 100 µM (inactive)	> 100 µM (inactive)	> 100 µM (inactive)	> 100 µM (inactive)	> 100 µM (inactive)	> 100 µM (inactive)	
O=C(Cc1ccccc1)NCCCN(CCCCN(CCCNC(=O)Cc1ccccc1)C(=O)OCc1ccccc1)C(=O)OCc1ccccc1	> 100 µM (inactive)	> 100 µM (inactive)	> 100 µM (inactive)	> 43.4		> 24.8 µM (inactive)	> 100 µM (inactive)	> 100 µM (inactive)	> 100 µM (inactive)	> 19.9 µM (inactive)	> 100 µM (inactive)	> 100 µM (inactive)		> 100 µM (inactive)			> 100 µM (inactive)	> 100 µM (inactive)	> 75.9 µM (inactive)
CC(C)(C)CN1[C@@H]2CCCC[C@H]2N(CC(C)(C)C)P1(=O)Cc1ccccc1	15.6 µM (inactive)	17.1 µM (inactive)	10.2 µM (inactive)	12	11.3 µM (inactive)	10.1 µM (inactive)	13.1 µM (inactive)	15.7 µM (inactive)	13.5 µM (inactive)	13.2 µM (inactive)	14.4 µM (inactive)	15 µM (inactive)	12.2 µM (inactive)	16.3 µM (inactive)	14.6 µM (inactive)	11.4 µM (inactive)	10.7 µM (inactive)	10.7 µM (inactive)	
Cc1ccc(C)n2c1nc1cc3ccccc3cc12	36.2 µM (inactive)	25.6 µM (inactive)	15.3 µM (inactive)	4.92	53.8 µM (inactive)		21.1 µM (inactive)		42.6 µM (inactive)		44.4 µM (inactive)	64 µM (inactive)	17.1 µM (inactive)	43 µM (inactive)	24.4 µM (inactive)	17 µM (inactive)	18.8 µM (inactive)	25.1 µM (inactive)	
CC(=O)OCc1ccc(O)c(C=O)c1	> 100 µM (inactive)	> 100 µM (inactive)	40.4 µM (inactive)	46.5	39.6 µM (inactive)	> 100 µM (inactive)	> 100 µM (inactive)	> 100 µM (inactive)	25.2 µM (inactive)	> 100 µM (inactive)	96.2 µM (inactive)	64.9 µM (inactive)	> 100 µM (inactive)	84.3 µM (inactive)	92.3 µM (inactive)	> 100 µM (inactive)	71.3 µM (inactive)	> 100 µM (inactive)	
CN(Cc1cc(Cl)c(Cl)cc1NC(=O)CN)[C@H]1CCCC[C@@H]1N1CCCC1	17.1 µM (inactive)		20.8 µM (inactive)		40.4 µM (inactive)	19 µM (inactive)	44.4 µM (inactive)	15.4 µM (inactive)	17.1 µM (inactive)	21.8 µM (inactive)	54.5 µM (inactive)	68.2 µM (inactive)	17.7 µM (inactive)	69.3 µM (inactive)	45.2 µM (inactive)	> 100 µM (inactive)	17.1 µM (inactive)	74 µM (inactive)	18.4 µM (inactive)

— ChEMBL document CHEMBL1201862, “PubChem BioAssay data set” (2004)
